Source: ChEMBL document CHEMBL1201862, “PubChem BioAssay data set” (2004)
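Cells were grown in 96-well plates and exposed to each compound for 48 hours at five concentrations; endpoints were interpolated linearly between bracketing concentrations, or set to the highest concentration if not reached. GI50 is the concentration that inhibits growth by half.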 The source made the active and inactive calls. No stated cut-off is given here; in the data, active = GI50 up to about 1.1 µM and inactive = higher.

How the values were obtained:
Assay in all cases: inhibition of tumour cell growth, NCI panel, 48 h
786-0 = system: 786-0
A498 = system: A498
A549 = system: A549
ACHN = system: ACHN
BT-549 = system: BT-549
CAKI-1 = system: CAKI-1
CCRF-CEM = system: CCRF-CEM
COLO 205 = system: COLO 205
DU-145 = system: DU-145
EKVX = system: EKVX
HCC 2998 = system: HCC 2998
HCT-116 = system: HCT-116
HCT-15 = system: HCT-15
HL-60 = system: HL-60
HOP-62 = system: HOP-62
HOP-92 = system: HOP-92
HT-29 = system: HT-29
Hs-578T = system: Hs-578T
IGROV-1 = system: IGROV-1
K562 = system: K562
KM12 = system: KM12
LOX IMVI = system: LOX IMVI
M14 = system: M14
MCF7 = system: MCF7
MDA-MB-435 = system: MDA-MB-435
MDA-N = system: MDA-N
MOLT-4 = system: MOLT-4
Malme-3M = system: Malme-3M
NCI-H226 = system: NCI-H226
NCI-H23 = system: NCI-H23
NCI-H460 = system: NCI-H460
NCI-H522 = system: NCI-H522
NCI/ADR-RES = system: NCI/ADR-RES
OVCAR-3 = system: OVCAR-3
OVCAR-5 = system: OVCAR-5
OVCAR-8 = system: OVCAR-8
PC-3 = system: PC-3
RXF 393 = system: RXF 393
SF-268 = system: SF-268
SF-295 = system: SF-295
SF-539 = system: SF-539
SK-MEL-28 = system: SK-MEL-28
SK-MEL-2 = system: SK-MEL-2
SK-MEL-5 = system: SK-MEL-5
SK-OV-3 = system: SK-OV-3
SN12C = system: SN12C
SNB-19 = system: SNB-19
SNB-75 = system: SNB-75
SW-620 = system: SW-620
T47D = system: T47D
UACC-257 = system: UACC-257
UACC-62 = system: UACC-62
UO-31 = system: UO-31
OVCAR-4 = system: OVCAR-4
RPMI-8226 = system: RPMI-8226
SR = system: SR
TK-10 = system: TK-10
U-251 = system: U-251
MDA-MB-231 = system: MDA-MB-231

Measured: GI50

COc1cc(/C=N/NC(=O)c2c(Cl)c(Cl)c(Cl)c(Cl)c2-c2nc3ccccc3[nH]2)ccc1O
inactive: 786-0 28 µM | A498 27.5 µM | A549 29.9 µM | ACHN 21.4 µM | BT-549 21.1 µM | CAKI-1 25.3 µM | CCRF-CEM 21.9 µM | COLO 205 22.3 µM | DU-145 19.9 µM | EKVX 19.2 µM | HCC 2998 17.2 µM | HCT-116 16.7 µM | HL-60 21.2 µM | HOP-62 21.6 µM | HOP-92 10.8 µM | HT-29 22.2 µM | Hs-578T 44 µM | IGROV-1 14 µM | K562 20.4 µM | KM12 24.2 µM | LOX IMVI 22.4 µM | M14 24.7 µM | MCF7 16.9 µM | MDA-MB-435 29 µM | MDA-N 24 µM | MOLT-4 18 µM | Malme-3M 21.7 µM | NCI-H226 21.3 µM | NCI-H23 19.9 µM | NCI-H460 19.1 µM | NCI-H522 30.6 µM | NCI/ADR-RES > 100 µM | OVCAR-3 27.3 µM | OVCAR-5 27.9 µM | OVCAR-8 31.1 µM | PC-3 29.4 µM | RXF 393 20.2 µM | SF-268 32.5 µM | SF-295 24.1 µM | SF-539 26.7 µM | SK-MEL-28 33.6 µM | SK-MEL-2 20.3 µM | SK-MEL-5 14.9 µM | SK-OV-3 35.5 µM | SN12C 24.2 µM | SNB-19 30.5 µM | SNB-75 22.9 µM | SW-620 34.4 µM | UACC-257 29.3 µM | UACC-62 15.8 µM | UO-31 22.4 µM
22 µM: HCT-15
active: T47D 0.56 µM

CCN(CC)CCC1(C(=O)OC)SCCc2ccc(C)cc21 (stereo not given)
inactive: 786-0 > 100 µM | A498 > 100 µM | A549 > 100 µM | ACHN > 100 µM | BT-549 > 100 µM | CAKI-1 > 100 µM | CCRF-CEM > 100 µM | COLO 205 > 100 µM | DU-145 > 100 µM | EKVX > 100 µM | HCC 2998 > 100 µM | HCT-116 > 100 µM | HOP-62 > 100 µM | HOP-92 > 100 µM | Hs-578T > 100 µM | IGROV-1 > 100 µM | K562 > 100 µM | KM12 > 100 µM | LOX IMVI > 100 µM | M14 > 100 µM | MCF7 > 100 µM | MDA-MB-435 > 100 µM | MDA-N > 100 µM | MOLT-4 > 100 µM | Malme-3M > 100 µM | NCI-H226 > 100 µM | NCI-H23 > 100 µM | NCI-H460 > 100 µM | NCI-H522 > 100 µM | NCI/ADR-RES > 100 µM | OVCAR-3 > 100 µM | OVCAR-4 > 100 µM | OVCAR-5 > 100 µM | OVCAR-8 > 100 µM | PC-3 > 100 µM | RPMI-8226 > 100 µM | RXF 393 > 100 µM | SF-268 > 100 µM | SF-295 > 100 µM | SF-539 > 100 µM | SK-MEL-28 > 100 µM | SK-MEL-2 > 100 µM | SK-MEL-5 > 100 µM | SK-OV-3 > 100 µM | SN12C > 100 µM | SNB-19 > 100 µM | SNB-75 63.2 µM | SR > 100 µM | SW-620 > 100 µM | T47D > 100 µM | TK-10 > 100 µM | U-251 > 100 µM | UACC-257 > 100 µM | UACC-62 > 100 µM | UO-31 > 100 µM
> 100 µM: HCT-15

COc1cc(OC)c(-c2ccc(OCc3ccccc3)c3c(OC)cc(C)cc23)c2c1C(C)=N[C@H](C)C2
inactive: 786-0 2.1 µM | A498 2.16 µM | A549 2.3 µM | ACHN 2.25 µM | BT-549 3.31 µM | CAKI-1 > 12.5 µM | CCRF-CEM 1.99 µM | COLO 205 2.28 µM | DU-145 2.38 µM | EKVX 2.4 µM | HCT-116 2.23 µM | HL-60 2.2 µM | HOP-62 2.26 µM | HOP-92 1.64 µM | HT-29 1.97 µM | Hs-578T 2.29 µM | IGROV-1 1.87 µM | K562 1.55 µM | KM12 2.09 µM | LOX IMVI 1.88 µM | M14 2.03 µM | MDA-MB-231 2.33 µM | MDA-MB-435 2.3 µM | MDA-N 2.15 µM | MOLT-4 2.29 µM | Malme-3M 1.8 µM | NCI-H226 2.64 µM | NCI-H23 2.36 µM | NCI-H460 2.1 µM | NCI-H522 1.82 µM | NCI/ADR-RES 2.12 µM | OVCAR-3 2.25 µM | OVCAR-4 2.14 µM | OVCAR-5 2.52 µM | OVCAR-8 1.96 µM | PC-3 2.1 µM | RPMI-8226 1.44 µM | RXF 393 2.77 µM | SF-268 1.78 µM | SF-295 2.01 µM | SF-539 2.38 µM | SK-MEL-28 2.36 µM | SK-MEL-2 2.25 µM | SK-MEL-5 2.27 µM | SK-OV-3 2.19 µM | SN12C 2.04 µM | SNB-19 2.68 µM | SNB-75 2.29 µM | SR 1.16 µM | SW-620 2.45 µM | TK-10 1.8 µM | U-251 2.08 µM | UACC-257 2.17 µM | UACC-62 2.1 µM | UO-31 1.14 µM
2.14 µM: HCT-15
